Where two headings read alike, the source gives them in different places.
Key:
[1] = molecular target: T1, RhoA-LARG interaction (Homo sapiens, UniProt P61586); experiment: In vitro complex-formation assay of RhoA with LARG DH-PH domain; format: binding; details: R-G04 25 µM or 50 µM, S-G04 5 µM or 10 µM; 4 °C, 1 h
T1 construct: 100 ng of purified full-length RhoA
Description: (A) A complex-formation assay tested the inhibitory effects of 20 µM UC-177618 and UC-177619 on RhoA interaction with the LARG DH-PH domain. […] After incubating the compound-RhoA-LARG mixture at 4 °C for 1 h, the beads associated with RhoA were detected with anti-RhoA Western blotting. (B,C) Top view of the predicted structural contacts of UC-177618 and UC-177619 in the binding pocket around the Trp58 residue of RhoA.
(A) A complex-formation assay tested the inhibitory effects of R-G04 and S-G04 on RhoA interaction with the LARG DH-PH domain. MBP-(His)6-tagged LARG (100 ng) was immobilized on Amylose beads. Binding buffer containing full-length RhoA (100 ng) was pre-incubated with different concentrations of R-G04 (25 µM or 50 µM), and S-G04 (5 µM or 10 µM) was added to the beads. After incubating the compound-RhoA-LARG mixture at 4 °C for 1 h, the beads associated with RhoA were detected with anti-RhoA Western blotting. (B) Top view of the predicted structural contacts of R-G04 and S-G04 in the binding pocket around the Trp58 residue of RhoA.
In total, 100 ng of purified MBP (Maltose-binding protein)-(His)6-tagged LARG DH-PH was immobilized on 20 µL of suspended amylose beads (No. E8021S; New England Biolabs Inc., Ipswich, MA, USA) by incubating them in an orbital shaker at 4 °C for 30 min in binding buffer (20 mM Tris·HCl (pH 7.6), 100 mM NaCl, 0.01% Triton X-100, 5mM EDTA, and 5 mM MgCl2). The compounds were added to the binding buffer containing 100 ng of purified full-length RhoA and pre-incubated at 4 °C for 30 min under constant agitation. The Amylose beads bound to LARG were washed thrice with binding buffer to get rid of unbound LARG, and the pre-incubated compound-RhoA mixture was added to the beads. This LARG-compound-RhoA mixture was incubated in the orbital shaker at 4 °C for 1 h. The beads were washed three times, and the amount of RhoA protein co-precipitated with the MBP-fusion-bound beads was detected with anti-RhoA Western blotting.

[2] = system: myosin light chain (MLC); experiment: Phosphorylation of myosin light chain (p-MLC), Western blot in collagen-stimulated platelets; format: cell-based, human; details: different concentrations of R-G04 or S-G04; collagen 1 µg/mL
Description: (A,B) Washed human platelets were incubated with collagen (1 µg/mL) for 4 min, and the levels of RhoA-GTP formation were quantified with a GST-Rhotekin effector pull-down assay. The platelets were pre-incubated with 20 µM UC-177618, UC-177619, UC-177628, UC-177629, […], or […] for 2 min before being stimulated with collagen. The addition of ice-cold lysis buffer terminated the reaction. […] Relative amounts of the GTP-bound form of RhoA were quantified with densitometry measurements of total RhoA (T-RhoA) and normalized to untreated platelets. […] The samples were processed for Western blotting and probed for MLC and p-MLC, and phosphorylation was quantified by measuring the densitometry of total MLC (T-MLC). The differences between DMSO- and Rhosin-related compounds were analyzed with t-test, and the results are shown as means ± SDs of three independent experiments. […]
A volume of 250 µL of washed human platelets (2.5 × 10^8/mL) was pre-warmed to 37 °C along with the compounds or DMSO (0.1%) for 2 min before being stimulated with collagen (1 µg/mL) for 4 min. The reactions were terminated by adding 4x Laemmli buffer, and phosphorylated MLC protein was detected with Western blotting as previously reported. Phosphorylation was quantified by measuring the densitometry.

[3] = system: washed human platelets; experiment: Collagen-induced platelet aggregation, light transmission aggregometry (Born method); format: cell-based; details: for IC50: collagen 1 µg/mL, dose-response curves, read-out: IC50 (95% CI) of platelet aggregation; for IC50 / activity at 20 µM: washed human platelets; for activity at 20 µM: compound 20 µM, means ± SDs of three experiments, 100% = agonist alone
Description: Light transmission aggregometry, i.e., the Born method, was used to determine in vitro antiplatelet aggregation activity using collagen as the agonist for platelet aggregation. Collagen was selected as the agonist, since it is the most thrombogenic component of the subendothelial layer. Collagen also serves as a substrate for platelet adhesion and as an inducer of platelet activation.
All experiments using human blood from healthy volunteers were performed according to the protocols approved by the Institutional Review Board at Cincinnati Children’s Hospital Medical Center, Cincinnati, Ohio. Each volunteer was required to sign an informed consent form approved by the IRB. Procedures for drawing human blood, isolating platelet-rich plasma (PRP), and preparing washed platelet suspensions were the same as those previously reported. […] PRP was obtained by means of the centrifugation of blood at 1400 rpm for 15 min at room temperature. PRP was centrifuged at 4000 rpm for 10 min at room temperature, and the platelet pellet was resuspended in HEPES Tyrode’s solution (pH 7.4) without calcium. Platelets were counted using Hemavet 950FS (Drew Scientific, Oxford, CT, USA), and the count was adjusted to 2.5 × 10^8/mL for aggregation studies.
The in vitro antiplatelet activity of the compounds was assayed on washed human platelets using light transmission aggregometry. Platelet aggregation was performed using a 4-channel Lumi-aggregometer (Chronolog, PA, USA) at 37 °C and stirring speed of 900 rpm. A volume of 250 µL of washed human platelets (2.5 × 10^8/mL) was pre-warmed to 37 °C along with the compounds or DMSO (0.1%) for 2 min before the addition of agonists such as collagen, AA, U46619 (a stable synthetic analog of thromboxane A2), ADP, and thrombin. For ATP secretion, platelets were pre-incubated with a luciferin/luciferase kit (Chrono-lume®) for 30 s at 37 °C before the addition of the agonist. The reactions were allowed to proceed for at least 4 min, and the results of platelet aggregation and ATP secretion were determined using Aggrolink software. Platelet aggregation was expressed as the maximum change in the light transmission, where the 100% value corresponded to treatment with the agonist alone. Compounds were evaluated in triplicate at nine compound concentrations ranging from 50 µM to 1 µM.

[4] = Platelet, read-out: % Platelet Aggregation, Collagen (1 µg/mL)
[5] = Platelet, read-out: % Platelet Aggregation, Collagen (5 µg/mL)

T1 sequence (P61586 whole entry, the tested form may be a part): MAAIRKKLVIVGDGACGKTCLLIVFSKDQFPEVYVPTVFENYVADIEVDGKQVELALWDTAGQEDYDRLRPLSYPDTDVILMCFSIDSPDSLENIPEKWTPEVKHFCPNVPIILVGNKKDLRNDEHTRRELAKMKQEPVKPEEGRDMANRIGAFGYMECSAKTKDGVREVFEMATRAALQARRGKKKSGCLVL

Compound	LARG binding to RhoA [1]	phosphorylation of the MLC [2]	IC50 ([3]; Homo sapiens, Platelet) [µM]	activity at 20 µM [3, 4] [%]	activity at 20 µM [3, 5] [%]	IC50 [3] [µM]	potency of S-G04 relative to R-G04 ([3]; from IC50, collagen 1 µg/mL)
N[C@H](Cc1c[nH]c2ccccc12)C(=O)N/N=C/c1ccc2nccnc2c1 [R-G04]	dose-dependently suppressing LARG binding to RhoA	inhibited the downstream phosphorylation of the MLC	22.6	70.3 ± 18.9	71.4 ± 15	–	–
N[C@@H](Cc1c[nH]c2ccccc12)C(=O)N/N=C/c1ccc2nccnc2c1 [S-G04]	dose-dependently suppressing LARG binding to RhoA	inhibited the downstream phosphorylation of the MLC	7.8	9.33 ± 4.93	20 ± 5	7.96	three times more potent than R-G04

— PMC9961652 (International Journal of Molecular Sciences, 2023)
